Measurements reported in PubChem BioAssay AID743396 (Broad Institute, 2014).
Activity calls are given as the source filed them.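 Rule for the calls: active = fitted curve reaches a 40% rise in fluorescent cells at or below the top valid dose; inactive = opposite-direction effect, or the rest.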

Experiment: autofluorescent compounds in non-GFP fibroblasts, dose response, artefact control for X-chromosome reactivation project, imaging, mTEFS fibroblasts, cherry-pick (AID 743396);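 note: raw share of Hoechst-counted cells scored GFP positive without control normalization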
Conditions: mTEFS fibroblasts autofluorescence, GFP-channel imaging, 3 days, at 19.5 µM (top of the series)

| Compound | % fluorescent cells increase (cells pretreated with 5-aza-dC) | % fluorescent cells increase |
| --- | --- | --- |
| O=C(COC(=O)/C=C/c1cccc(C(F)(F)F)c1)NC(=O)NCc1ccco1 | 0.351% (inactive) |  |
| COc1ccccc1N(C)c1cc2c(c3c1ccn3C)C1CCC2C1 (centres undefined) | 0.033% (inactive) |  |
| Cc1cc(/C=C2\SC(=S)N(Cc3ccco3)C2=O)c(C)n1-c1ccccc1 | 0.981% (inactive) |  |
| COc1ccccc1-c1cc(C(=O)N2CCCc3ccccc32)no1 | 0.006% (inactive) |  |
| CCCN(C)C[C@@H]1OCc2cnnn2CCCC(=O)N([C@H](C)CO)C[C@H]1C | 0.007% (inactive) |  |
| O=[N+]([O-])c1c(Nc2ccc(O)cc2)cc(Cl)c2nonc12 | -0.006% (inactive) |  |
| CCSc1nnc(NC(=O)c2cc(OC)c(OC)c(OC)c2)s1 | 0% (inactive) |  |
| Clc1ccc(-c2nc(-c3ccncc3)no2)c(Cl)c1 | 0% (inactive) |  |
| COC(=O)c1cc(NS(=O)(=O)c2ccc(NC(C)=O)cc2)ccc1Cl | 0% (inactive) |  |
| O=C(O)c1ccccc1NS(=O)(=O)c1ccc(N/N=C/c2cccc(O)c2O)c([N+](=O)[O-])c1 | 12.8% (inactive) |  |
| CCOC(=O)c1nn(-c2ccc3ccccc3c2)cc1O | 0.04% (inactive) |  |
| Cc1ccc(S(=O)(=O)N2CC3(O)CN(C(=O)OC(C)C)N(C(=O)OC(C)C)CC3(OC(=O)NCc3ccccc3)C2)cc1 (centres undefined) | 0.003% (inactive) |  |
| Cc1ccc(N2C(=O)C3C4C=CC(CNC(=S)N5CCN(c6ccccc6)CC5)(O4)C3C2=O)cc1 (centres undefined) | 1.71% (inactive) |  |
| CN(Cc1nc(CCc2ccccc2)no1)Cc1cccs1 | 0.295% (inactive) |  |
| CC(C)(C)C1CCNC(=O)CC1 (centres undefined) | -0.007% (inactive) |  |
| Cc1ccsc1C1Nc2ccccc2-c2nc3ccccc3n21 (centres undefined) | 0.699% (inactive) |  |
| COc1ccc(C(=O)N/N=C/c2cc(Br)ccc2O)cc1OC | 4.96% (inactive) |  |
| COc1ccc(-c2ccc(C#N)c(SCC(=O)NCc3ccco3)n2)cc1OC | 0% (inactive) |  |
| COC(=O)c1c(NC(=O)c2ccccc2)sc2c1CC(C)(C)NC2(C)C | -0.011% (inactive) |  |
| CCOC(=O)c1ccc(NC(=O)c2ccnn2C)cc1 | 0% (inactive) |  |
| Cc1ccc(C)c(CSC2=NN3CCCC(=O)N=C3S2)c1 | -0.006% (inactive) |  |

| Compound | % fluorescent cells increase (cells pretreated with 5-aza-dC) | % fluorescent cells increase |
| --- | --- | --- |
| Cc1nc(NC(=O)C(Cl)Cl)sc1C(=O)N(C)C | 0% (inactive) |  |
| CC(C)CCN1CCN(Cc2cc3ccccc3[nH]2)CC1CCO (centres undefined) | 0% (inactive) |  |
| Oc1ccc(Cl)cc1C=Nc1ccc2c3c(cccc13)CC2 | 0.216% (inactive) |  |
| C[C@H]1CCCCO[C@H](CN(C)S(=O)(=O)c2ccc(Cl)cc2)[C@@H](C)CN([C@@H](C)CO)C(=O)c2cc(NC(=O)Nc3ccccc3)ccc2O1 | 1.86% (inactive) |  |
| Cc1cccc(C(=O)NCc2ccc(S(N)(=O)=O)cc2)c1[N+](=O)[O-] | -0.007% (inactive) |  |
| CCc1ccc(NS(=O)(=O)c2cccc3nonc23)cc1 | 5.79% (inactive) |  |
| COCCNC(=O)CSc1nc2scc(-c3ccccc3)c2c(=O)[nH]1 | 0.106% (inactive) |  |
| COc1ccc(NC(=O)C(=O)NCCC2CCCCN2S(=O)(=O)c2cccs2)cc1 (centres undefined) | 2.33% (inactive) |  |
| Cc1ccc(C(=O)c2oc3ccccc3c2NC(=O)c2cc(-c3ccccc3O)n[nH]2)cc1 | 9.74% (inactive) |  |
| F[B-](F)(F)c1cnc2ccccc2c1 | 0.137% (inactive) |  |
| COC(=O)Cn1cc(/C=C2\C(=O)NC(=O)N(c3ccc(OC)cc3)C2=O)c2ccccc21 |  | 0.304% (inactive) |
| O=C1N[C@H](Cc2ccccc2)COCc2cn(nn2)CC[C@@H]1Cc1ccccc1 | 0.024% (inactive) |  |
| C[C@@H]1CN([C@@H](C)CO)C(=O)c2cc(NS(=O)(=O)c3cn(C)cn3)ccc2O[C@@H](C)CCCCO[C@H]1CN(C)C(=O)c1ccccc1 | 0% (inactive) |  |
| CC(OCCN(C)C)C(=O)C12CC3CC(CC(C3)C1)C2 (centres undefined) | 0.039% (inactive) |  |
| O=C(c1cccc2ccccc12)C1CCCN(Cc2ccon2)C1 (centres undefined) |  | 0% (inactive) |
| CCOCCCNC(=O)C(c1ccc(C)cc1)N(Cc1cccs1)C(=O)c1ccccn1 (centres undefined) | 0% (inactive) |  |
| COc1ccc(C2C(=O)c3ccccc3C2=Nc2ccc(Br)cc2)cc1 (centres undefined) | 0.033% (inactive) |  |
| Cc1ccc2c(COC(=O)C34CC5CC(CC(C5)C3)C4)cc(=O)oc2c1 | 0% (inactive) |  |
| CCc1nc(C)cn1S(=O)(=O)c1ccc([N+](=O)[O-])cc1 | 0.011% (inactive) |  |
| ClC1CCCCC1n1nnc2ccccc21 (centres undefined) | 0.006% (inactive) |  |
| CCOC(=O)c1ccc(NC(=O)C2CCC(CNc3c(N4CCOCC4)c(=O)c3=O)CC2)cc1 (centres undefined) | 0.105% (inactive) |  |

| Compound | % fluorescent cells increase (cells pretreated with 5-aza-dC) | % fluorescent cells increase |
| --- | --- | --- |
| CC1CC(C)CN(C(=O)CSCC(=O)Nc2nc(-c3cccs3)cs2)C1 (centres undefined) | 0% (inactive) |  |
| Cc1ccc(S(=O)(=O)N2CCN(C(=O)COC(=O)c3ccccc3OC(F)F)CC2)c(C)c1 | 0% (inactive) |  |
| Nc1ccc(-c2nc3ccccc3[nH]2)cc1 | 0% (inactive) |  |
| CN(C)/C=C1\C=C2C(=O)c3ccccc3N2C1=O | 0.092% (inactive) |  |
| COc1ccc(Nc2nc(N)c(C(=O)c3ccc(F)cc3)s2)cc1 | 0% (inactive) |  |
| O=C(NCc1ccccc1)c1ccccc1Br | 3.38% (inactive) |  |
| CCN1CCN(c2cc(C)c3cc(NC(=O)c4cccs4)ccc3n2)CC1 | 0.257% (inactive) |  |
| COc1ccc(-c2ccc3[nH]c4c(c3c2)CCN2C(=O)[C@@H]([C@H](C)O)[C@@H](N(C)C(=O)Nc3ccc(F)cc3)C[C@@H]42)cc1 | 10.8% (inactive) |  |
| O=C(Nc1c(Cl)cccc1Cl)Oc1cccc2cccnc12 | 6.89% (inactive) |  |
| CN(C)CCN(C(=O)c1ccc(S(=O)(=O)N(C)c2ccccc2)cc1)c1nc2cc3c(cc2s1)OCCO3 | 0% (inactive) |  |
| Cc1cc(C(=O)NCc2cc(F)cc3c2OCOC3)nn1C | -0.003% (inactive) |  |
| C[C@H](CO)N1C[C@H](C)[C@H](CN(C)Cc2ccccc2)Oc2ccc(NS(C)(=O)=O)cc2C1=O | 0.123% (inactive) |  |
| COc1ccc(NC(=O)Nc2ccc3c(c2)C(=O)N([C@H](C)CO)C[C@H](C)[C@H](CN(C)Cc2ccc4c(c2)OCO4)O3)cc1 | -0.166% (inactive) |  |
| COc1ccc(COc2ccccc2C(=O)NCc2ccccc2)cc1F | 0% (inactive) |  |
| CCOC(=O)c1ccccc1NC(=O)COC(=O)C1CCN(S(=O)(=O)c2ccccc2C(=O)OC)CC1 | 0% (inactive) |  |
| C[C@H]1CCCCO[C@@H](CN(C)C(=O)Nc2ccc(C(F)(F)F)cc2)[C@@H](C)CN([C@@H](C)CO)C(=O)c2cc(NC(=O)CCC(F)(F)F)ccc2O1 | -0.166% (inactive) |  |
| O=C(Nc1c(F)cccc1F)C(c1ccccc1)c1ccccc1 | 0.034% (inactive) |  |
| CC(C)(C=O)C1=CC(=O)c2ccccc2C1=O | 0% (inactive) |  |
| CCN1C(=O)C(=Cc2cccc(OC)c2Oc2ccc([N+](=O)[O-])cc2[N+](=O)[O-])SC1=S | 1.07% (inactive) |  |
| Cc1ccsc1/C=N/n1c(-c2cc(-c3ccccc3)n[nH]2)n[nH]c1=S | 0% (inactive) |  |
| O=C(NNC(=O)c1cc2ccccc2o1)c1ccc(Cl)cc1 | 0.148% (inactive) |  |

| Compound | % fluorescent cells increase (cells pretreated with 5-aza-dC) | % fluorescent cells increase |
| --- | --- | --- |
| C[C@@H]1ON(C)[C@H]2C[C@H]3c4cc(-c5cccc(F)c5)ccc4CCN3C(=O)[C@@H]12 | 0% (inactive) |  |
| COc1ccc2c3c(n(C)c2c1)[C@@H](CO)N(C)CC31CN(C(=O)NC(C)C)C1 | -0.14% (inactive) |  |
| C=Cc1cnc([N+](=O)[O-])n1C | 0.007% (inactive) |  |
| CCOc1ccccc1N1C(=O)CC(Sc2nccc(C)n2)C1=O (centres undefined) | 0% (inactive) |  |
| CCOC(=O)Nc1ccc2nc(-c3cscn3)[nH]c2c1 | 0.274% (inactive) |  |
| COC(=O)c1ccc(-n2c(C)cc(C(=O)COC(=O)C3=COCCO3)c2C)cc1 | -0.007% (inactive) |  |
| COc1cc(C(=O)NC(=S)Nc2cccc3nc(C)ccc23)cc(OC)c1OC | 0.128% (inactive) |  |
| Nc1nnc(SCC(=O)c2ccc([N+](=O)[O-])cc2)s1 | -0.007% (inactive) |  |
| Cc1ccc(S(=O)(=O)NN2C(=O)/C(=C/c3ccccn3)SC2=S)cc1 | 0.042% (inactive) |  |
| Cc1noc(C)c1S(=O)(=O)Nc1ccc2c(c1)C(=O)N([C@H](C)CO)C[C@H](C)[C@H](CN(C)C(=O)Nc1ccc(F)cc1)OCCCC[C@H](C)O2 | 0% (inactive) |  |
| CCCN(C(=O)c1ccc(-n2cncn2)c([N+](=O)[O-])c1)C1CCS(=O)(=O)C1 (centres undefined) | 0.034% (inactive) |  |
| CN(C)CCN(Cc1ccc(Cl)cc1)c1ccccn1 | -0.004% (inactive) |  |
| CCOC(=O)C1CCN(c2c(NCc3ccc(C(=O)NC4CCCC4)cc3)c(=O)c2=O)CC1 | 0% (inactive) |  |
| CNc1ccc([N+](=O)[O-])cc1C(=O)O | -0.007% (inactive) |  |
| CC(=O)c1c(COC(=O)c2ccccc2Cl)nc2ccccc2[n+]1[O-] | 0.001% (inactive) |  |
| CC(C)C#Cc1ccc([C@@H]2[C@@H](CO)N3C(=O)CN(C(=O)c4ccc5c(c4)OCO5)C[C@H]23)cc1 | -0.166% (inactive) |  |
| O=c1c2cc(-c3ccccc3)sc2nc2n1N=C(c1ccccc1)CS2 | 1.14% (inactive) |  |
| NNC(=O)/C(=C\c1ccc(Br)cc1)NC(=O)c1cccs1 | 0.233% (inactive) |  |
| CCN1CCN(c2cc3nc(C)n(Cc4ccccc4)c(=O)c3cc2NC(=O)c2ccccc2F)CC1 | 0% (inactive) |  |
| Oc1cccc(/C=N/NC(=S)NCCN2CCOCC2)c1O | 0% (inactive) |  |
| COc1ccc2c3c(n(C)c2c1)[C@H](CO)N(Cc1ccccc1F)CC31CCN(CC2CC2)CC1 | -0.126% (inactive) |  |
